Measurements from patent publication US20240079083A1, “USING BIPARTITE NETWORKS TO DETERMINE INTERACTIONS BETWEEN ANALYTES AND CHEMICAL TREATMENTS” (UT-Battelle, LLC, priority 2022, published 2024).

Assays:
Aspergillus fumigatus [1] = test: Direct route: production of known and putative specialized metabolites under exogenous treatments, 25° C. (targeted LC-MS, bipartite network); type: cell-based; conditions: for broadcasting PageRank of the treatments: minimum-maximum normalized; for broadcasting PageRank of the treatments / node out-strength of the treatments (effect on triggering metabolite production): rank among treatments
Description: (§1) Several examples of a bipartite network framework of treatments and metabolomic outputs will now be described. Bipartite networks are built to quantify the relationship between metabolites and the sources triggering their production, such as various exogenous biomolecules or compounds. As discussed above, a bipartite network (or graph) is a collection of nodes connected by lines named edges. The nodes represent the entities or elements of a system, and the edges represent the interaction or relationship amongst the features. For example, in cell metabolism, a metabolic network represents the biochemical reactions amongst substrates that result in products. The nodes of the metabolic network represent the substrates, and the edges represent the metabolic reactions amongst the substrates. For example, this framework can assess the effect of exogenous compounds on the production of specialized microbial metabolites. The nodes can be classified into two types: the treatments and the specialized metabolites, resulting in a bipartite network. The edges represent the magnitude of up- or down-regulation of specialized metabolites caused by the treatments compared to a controlled case (measured by the magnitude of log2 fold change using processed spectral data from targeted LC-MS analysis).
The bipartite network provides an in-depth quantification and clear visual representation of a treatment's ability to trigger the production of various specialized metabolites. Two routes are provided to assess specialized metabolite production using the bipartite network formulation, as shown in FIG. 15. The first is the direct route 1502 to determine the biosynthesis of known and putative metabolites, whereas the second is the auxiliary route 1504 to assess the production of unknown analytes. In the direct route 1502, the network nodes include treatments that elucidate known and putative metabolites by a microbe. Network centrality measurements 1506 are used to rank the treatments and the specialized metabolites. Those measurements can be used to identify the most influential nodes in the bipartite network. […] The treatments can be ranked based on their capability to trigger metabolite production, and the metabolites can be classified based on their popularity in being activated by various treatments. In the auxiliary route, the bipartite networks are built using analyte peaks extracted from post-processed spectral data. Further, the systems and methods of the present disclosure analyze the edges and neighborhoods of nodes to distinguish unique analytes among the total pool.
The bipartite network framework was used in this example to reveal the effect of various chitooligosaccharides and lipid treatments on triggering the production of specialized metabolites in Aspergillus fumigatus. Various chitooligosaccharides and lipids were applied as exogenous treatments since they are common constituents found in most fungi. Moreover, it has been previously shown that lipids influence fungal metabolomics; however, the impacts of chitooligosaccharides have remained unknown. In contrast, chitooligosaccharides are reported to have antifungal activity, which might potentially influence the metabolomic profile in Aspergillus species. This example highlights the influence of temperature on the production of specialized metabolites by conducting the experiments at 25 and 37° C. Aspergillus fumigatus is generally examined at 25° C. to explore the extent of its metabolomic capabilities or its lifestyle as a soilborne saprotroph that recycles environmental carbon and nitrogen. However, the fungus is also an opportunistic human pathogen and is commonly examined at 37° C. for its ability to cause aspergillosis, a lung disease found in immunocompromised patients. […]

Aspergillus fumigatus [2] = test: Direct route: production of specialized metabolites under exogenous treatments, 37° C.; type: cell-based
Description: as §1
The bipartite network provides an in-depth quantification and clear visual representation of a treatment's ability to trigger the production of various specialized metabolites. Two routes are provided to assess specialized metabolite production using the bipartite network formulation, as shown in FIG. 15. The first is the direct route 1502 to determine the biosynthesis of known and putative metabolites, whereas the second is the auxiliary route 1504 to assess the production of unknown analytes. In the direct route 1502, the network nodes include treatments that elucidate known and putative metabolites by a microbe. Network centrality measurements 1506 are used to rank the treatments and the specialized metabolites. […]

Aspergillus fumigatus [3] = test: Auxiliary route: untargeted metabolomic profiling of the treatments, 25° C. (FCROS, bipartite network); type: cell-based
Description: (§2) The auxiliary route follows an untargeted metabolomic profiling of the treatments. […] In the direct route, a peak area cutoff of 5×10^5 was used to detect signals with significant peaks between a treatment and solvent control. Although their peak area cutoff of 5×10^5 eliminates most noise, it is a linear cutoff and leaves some residual noise in the analysis due to column creep. Therefore, the dataset for the auxiliary route can be curated from the experimental study using baseline correction preprocessing tools. Following the processes defined by “Dynamics of Metabolite Induction in Fungal Co-cultures by Metabolomics at Both Volatile and Non-volatile Levels”, Front. Microbiol., 5 Feb. 2018 Sec. Antimicrobials, Resistance and Chemotherapy, Azzollini et al., peaks can be picked using GridMass and aligned using RANSAC alignment or another suitable alignment tool. Peak data can then be matched to known profiles in KEGG and LipidMap.
(§3) Peak significance was determined upon FCROS scoring. Non-significant analytes were not included in the network. An interactive map of the network illustrating the details of each analyte (m/z ratio, retention times, p-values, etc.) can be generated.
The untargeted extraction of statistically relevant peaks using the auxiliary route can yield a significant number of analytes for potential exploration. The edges and neighbors of the nodes in the network can be used to determine which analytes to be first considered for targeted exploration. Analytes of particular interest express both […] depending on the treatment considered. Additionally, analytes of extreme up- and down-regulation can be of interest along with the node degree values of the analytes. FIG. 13D illustrates significant peaks with log2 fold change greater than 1 or less than −1. The total number of interactions (edges in the network) found with the auxiliary route is considerably higher compared to the network in the direct route. […] At 25 C, analytes ID 26 and ID 105 were matched to fraxetin via the KEGG database query. […] Analyte ID 222 was matched to ICAS #18 from the LipidMap database. […] At the same time, no single highly produced analyte is triggered by all three chitooligosaccharides.

Aspergillus fumigatus [4] = test: Auxiliary route: untargeted analytes under the treatments, 37° C.; type: cell-based
Description: as §2, §3
Considering the analytes from the network at 37° C. shown in FIG. 14D, twelve significant analyte peaks with log2 fold change intensities greater than 1 were extracted from the processed data. All three CO treatments at 37° C. triggered no shared analytes. Nor did the two lipid treatments trigger a shared analyte. Ten of the twelve analytes with log2 fold change intensities greater than 1 or less than −1 are uniquely triggered by a single treatment (i.e., analytes with node degree 1), as shown in FIG. 14D. Of the twelve significant extracted analyte peaks, eleven were identified from database queries. Analytes identified by KEGG were putative metabolites, hellebrigenin 3-acetate (ID 10), fraxetin (ID 16), beta-cyclopiazonate (ID 70), phenylbutazone (ID 71), borrerine (ID 89), clofibrate (ID 110), alangimarine (IDs 163 and 164), and sulindac (IDs 168 and 169). LipidMaps identified 6′-hydroxysiphonaxanthin decenoate (ID 21). […] There are no connections in ID numbers between the 25° C. and 37° C. experiments.

Aspergillus fumigatus [5] = conditions: 37° C.; cited from earlier work

Structure (SMILES)	number of metabolites triggered (Aspergillus fumigatus [1])	number of unique metabolites triggered (Aspergillus fumigatus [1])	broadcasting PageRank of the treatments (Aspergillus fumigatus [1])	node out-strength of the treatments (effect on triggering metabolite production) (Aspergillus fumigatus [1])	effectiveness of treatment at triggering metabolite production (node strength and PageRank) (Aspergillus fumigatus [2])	production of analyte 16 (Aspergillus fumigatus [3])	regulation of analyte 163 (Aspergillus fumigatus [4])	regulation of analyte 168 (Aspergillus fumigatus [4])	regulation of fraxetin (analytes ID 26 and ID 105) (Aspergillus fumigatus [3]; log2 fold change greater than 1 or less than −1)	regulation of analyte ID 90 (Aspergillus fumigatus [4])	regulation of ICAS #18 (analyte ID 222) (Aspergillus fumigatus [3]; with respect to the control)	broadcasting PageRank of the treatments (Aspergillus fumigatus [1]; listed as Oleic acid)	germination (Aspergillus fumigatus [5])
CC(=O)N[C@H]1[C@H](O[C@H]2[C@H](O)[C@@H](NC(C)=O)C(O)O[C@@H]2CO)O[C@H](CO)[C@@H](O[C@@H]2O[C@H](CO)[C@@H](O[C@@H]3O[C@H](CO)[C@@H](O)[C@H](O)[C@H]3NC(C)=O)[C@H](O)[C@H]2NC(C)=O)[C@@H]1O (some centres unmarked) [CO4]	six	two	most effective treatment	highest effect on triggering metabolite production	poor at triggering the production of metabolites	significantly produced	downregulated	downregulated	–	–	–	–	–
CC(=O)N[C@H]1[C@H](O[C@H]2[C@H](O)[C@@H](NC(C)=O)[C@H](O[C@H]3[C@H](O)[C@@H](NC(C)=O)C(O)O[C@@H]3CO)O[C@@H]2CO)O[C@H](CO)[C@@H](O[C@@H]2O[C@H](CO)[C@@H](O[C@@H]3O[C@H](CO)[C@@H](O)[C@H](O)[C@H]3NC(C)=O)[C@H](O)[C@H]2NC(C)=O)[C@@H]1O (some centres unmarked) [CO5]	–	one	–	–	–	significantly produced	–	–	upregulated	upregulated	–	–	–
CCCCCCCCCCCCCCCC(=O)O [palmitic acid]	–	–	least broadcasting PageRank measure	minor influence on inducing metabolite production	most effective treatment on metabolite production	–	upregulated	upregulated	–	upregulated	significantly down regulates	–	–
CCCCCCCC/C=C\CCCCCCCC(=O)O [oleic acid]	five	two	–	then oleic acid	poor at triggering the production of metabolites	–	–	downregulated	–	–	–	higher broadcasting PageRank value than CO5	inducer of germination
CC(=O)N[C@H]1[C@H](O[C@H]2[C@H](O)[C@@H](NC(C)=O)[C@H](O[C@H]3[C@H](O)[C@@H](NC(C)=O)[C@H](O[C@H]4[C@H](O)[C@@H](NC(C)=O)C(O)O[C@@H]4CO)O[C@@H]3CO)O[C@@H]2CO)O[C@H](CO)[C@@H](O[C@@H]2O[C@H](CO)[C@@H](O[C@@H]3O[C@H](CO)[C@@H](O[C@@H]4O[C@H](CO)[C@@H](O[C@@H]5O[C@H](CO)[C@@H](O)[C@H](O)[C@H]5NC(C)=O)[C@H](O)[C@H]4NC(C)=O)[C@H](O)[C@H]3NC(C)=O)[C@H](O)[C@H]2NC(C)=O)[C@@H]1O (some centres unmarked) [CO8]	–	–	followed by CO8	minor influence on inducing metabolite production	–	–	upregulated	–	–	–	–	–	–
